The results in this text go back to ChEMBL document CHEMBL1201862, “PubChem BioAssay data set” (2004).

Among the test systems are NCI-H460; M14; HCT-15; EKVX; CAKI-1; OVCAR-5; HT-29; NCI-H226; SW-620; HOP-92; DU-145; RXF 393; SF-295; RPMI-8226; SK-OV-3; SK-MEL-5; MDA-MB-435; Malme-3M; SNB-75; SF-268.
Holding throughout (experiment): DTP human tumour cell line panel, 48 h

Molecules are shown by their SMILES.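 Following 48 hours of exposure in 96-well plates, responses at five concentrations were used to interpolate endpoints linearly. GI50 = concentration required for 50% inhibition of growth.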 Active and inactive are the calls of the source. Rule as the data show it: active = GI50 up to about 1.1 µM and inactive = higher.

With `CC(=O)N[C@@H](Cc1ccc(O)cn1)C(=O)NCc1ccc(Cl)cc1`, the GI50 – broadly, the concentration that inhibits growth by half – is > 100 µM (inactive) with NCI-H460; > 100 µM (inactive) in the assay on M14; above 100 µM in the assay on HCT-15; > 100 µM (inactive) in the assay with EKVX; > 100 µM (inactive) with CAKI-1; > 100 µM (inactive) in the assay on OVCAR-5. Moreover, the GI50 was > 100 µM (inactive) with HT-29; > 100 µM (inactive) in the assay with NCI-H226; > 100 µM (inactive) in the assay with SW-620; 94.4 µM (inactive) with HOP-92; > 100 µM (inactive) with DU-145; > 100 µM (inactive) with RXF 393. Also, the GI50 with SF-295, with RPMI-8226, in the assay on SK-OV-3, in the assay on SK-MEL-5, with MDA-MB-435 and in the assay on Malme-3M was > 100 µM (inactive) throughout.
Take `COc1cccc(/C=C2\N=C(c3ccccc3)OC2=O)c1`: the GI50 in the assay on NCI-H460 is 50.7 µM (inactive); with M14, 81.3 µM (inactive); in the assay with HCT-15, 34 µM; with EKVX, > 100 µM (inactive); in the assay on CAKI-1, > 100 µM (inactive); in the assay with OVCAR-5 it was > 100 µM (inactive). For the same molecule, the GI50 in the assay on HT-29 was > 100 µM (inactive); in the assay on NCI-H226, 37.8 µM (inactive); in the assay with SW-620, > 100 µM (inactive); in the assay with SNB-75, 16.1 µM (inactive); in the assay with HOP-92 it was > 100 µM (inactive); with DU-145, 91.2 µM (inactive). In addition, the GI50 in the assay with RXF 393 was > 100 µM (inactive); in the assay on SF-295, > 100 µM (inactive); in the assay with RPMI-8226, 35.1 µM (inactive); in the assay with SF-268, > 100 µM (inactive); in the assay on SK-OV-3, > 100 µM (inactive); with SK-MEL-5, 50.5 µM (inactive). For the same molecule, the GI50 with MDA-MB-435 was > 100 µM (inactive).
In the case of `CN(C)CCNC(=O)Cn1ccc(=O)c2ccc([N+](=O)[O-])cc21`, the GI50 in the assay with NCI-H460 was > 100 µM (inactive); in the assay on M14, > 100 µM (inactive); in the assay with HCT-15, 73.8 µM; with EKVX, > 100 µM (inactive); in the assay with CAKI-1, > 100 µM (inactive); in the assay with OVCAR-5, > 100 µM (inactive). The GI50 in the assay on HT-29 is 52 µM (inactive); in the assay on NCI-H226 it was > 100 µM (inactive); in the assay with SW-620, > 100 µM (inactive); in the assay with HOP-92 it was > 100 µM (inactive); in the assay on DU-145, > 100 µM (inactive); in the assay with RXF 393 it was > 100 µM (inactive). Moreover, the GI50 in the assay on SF-295, in the assay on RPMI-8226, in the assay on SF-268, with SK-OV-3, in the assay on SK-MEL-5 and in the assay on MDA-MB-435 was > 100 µM (inactive) in each case. Further, the GI50 in the assay with Malme-3M is 44.7 µM (inactive).
For `CCCc1c(OC)c(=O)c2c(O)cc(OC)c3c4c(OC)cc(O)c5c(=O)c(OC)c(CCC)c(c1c23)c54`, the GI50 in the assay on NCI-H460 was 3.16 µM (inactive); with M14, 2.05 µM (inactive); in the assay with HCT-15 it was 2.9 µM; in the assay on EKVX, 2.58 µM (inactive); in the assay on CAKI-1, 4.17 µM (inactive); with OVCAR-5, 10.4 µM (inactive). Also, the GI50 with HT-29 was 4.79 µM (inactive); in the assay with NCI-H226, 3.46 µM (inactive); in the assay with SW-620 it was 3.15 µM (inactive); with SNB-75 it was 1.59 µM (inactive); with HOP-92, 5.69 µM (inactive); in the assay with DU-145 it was 3.76 µM (inactive). Moreover, the GI50 in the assay on SF-295 is 9.62 µM (inactive); in the assay on RPMI-8226, 2.5 µM (inactive); in the assay on SF-268, 5 µM (inactive); in the assay with SK-OV-3, 9.77 µM (inactive); in the assay with SK-MEL-5, 3.29 µM (inactive); with MDA-MB-435, 1.85 µM (inactive). The GI50 in the assay on Malme-3M was 2.43 µM (inactive).
Regarding `COc1ccc(N2C(=O)CS(=O)(=O)C2c2cccc(Oc3ccccc3)c2)cc1` (stereo not given), the GI50 with NCI-H460 is 2.61 µM (inactive); with M14 it was 3.7 µM (inactive); with HCT-15 it was 3.33 µM; in the assay on EKVX it was 9.91 µM (inactive); in the assay with CAKI-1 it was 2.72 µM (inactive); with OVCAR-5 it was 7.73 µM (inactive). In addition, the GI50 was 3.68 µM (inactive) in the assay with HT-29; 4.79 µM (inactive) in the assay with NCI-H226; 3.27 µM (inactive) in the assay on SW-620; 4.28 µM (inactive) in the assay with SNB-75; 7.52 µM (inactive) in the assay on HOP-92; 6.65 µM (inactive) with DU-145. For the same molecule, the GI50 was 4.04 µM (inactive) in the assay on RXF 393; 3.94 µM (inactive) in the assay with SF-295; 4.98 µM (inactive) in the assay on SF-268; 4.38 µM (inactive) with SK-OV-3; 4.57 µM (inactive) in the assay on SK-MEL-5; 0.959 µM (active) with MDA-MB-435. Also, the GI50 in the assay on Malme-3M is 7.74 µM (inactive).
For `O=C(CN1CCN(c2ccccn2)CC1)N1CCCn2c1nc1ccccc1c2=O`, the GI50 in the assay on NCI-H460 is > 100 µM (inactive); in the assay with M14 it was > 100 µM (inactive); in the assay with HCT-15, above 100 µM; in the assay on EKVX, > 100 µM (inactive); in the assay on CAKI-1, > 100 µM (inactive); with OVCAR-5, > 100 µM (inactive). For the same molecule, the GI50 in the assay on HT-29, with NCI-H226, in the assay on SW-620, in the assay on SNB-75, with HOP-92 and with DU-145 was > 100 µM (inactive) each time. Moreover, the GI50 in the assay on SF-295, in the assay on RPMI-8226, in the assay with SF-268, with SK-OV-3, in the assay on SK-MEL-5 and in the assay on MDA-MB-435 was > 100 µM (inactive) each time. Further, in the assay on Malme-3M, the GI50 is > 100 µM (inactive).
Take `CSCCC(NC(c1ccccc1)c1ccccc1)[PH](=O)O` (stereo not given): the GI50 was > 100 µM (inactive) in the assay on NCI-H460; > 100 µM (inactive) in the assay with M14; above 100 µM with HCT-15; > 100 µM (inactive) in the assay with EKVX; > 100 µM (inactive) with CAKI-1; > 100 µM (inactive) with OVCAR-5. For the same molecule, the GI50 in the assay on HT-29, with NCI-H226, in the assay with SW-620, with SNB-75, with HOP-92 and in the assay on DU-145 was > 100 µM (inactive) in each case. The GI50 in the assay on SF-295, in the assay on RPMI-8226, in the assay on SF-268, in the assay on SK-OV-3, in the assay on SK-MEL-5 and in the assay with MDA-MB-435 was > 100 µM (inactive) in each case. Besides, the GI50 with Malme-3M was > 100 µM (inactive).
As for `C=CC(c1ccccc1)C1(O)c2cccc(O)c2C(=O)c2c(O)cccc21` (stereo not given), the GI50 was 17.3 µM (inactive) in the assay on NCI-H460; 18.4 µM (inactive) in the assay on M14; 10.8 µM in the assay on HCT-15; 16.3 µM (inactive) in the assay with EKVX; 16.7 µM (inactive) with CAKI-1; 22.1 µM (inactive) in the assay on OVCAR-5. Further, the GI50 with HT-29 is 11.5 µM (inactive); with NCI-H226, 19.4 µM (inactive); with SW-620 it was 15.1 µM (inactive); with SNB-75, 20.5 µM (inactive); with HOP-92 it was 15.9 µM (inactive); with DU-145, 14.5 µM (inactive). Besides, the GI50 with RXF 393 is 14.2 µM (inactive); with SF-295 it was 14.9 µM (inactive); in the assay with RPMI-8226, 18.5 µM (inactive); in the assay with SF-268, 17.3 µM (inactive); in the assay on SK-MEL-5 it was 17.3 µM (inactive); in the assay with MDA-MB-435 it was 4.01 µM (inactive).
As for `CCN(CC)c1c(-c2c(OC(C)C)c(=O)c2=O)c(=O)n2ccsc2c1OC(C)=O`, the GI50 in the assay with NCI-H460 is > 100 µM (inactive); in the assay with M14, > 100 µM (inactive); in the assay on HCT-15, above 100 µM; with EKVX it was 71.9 µM (inactive); with CAKI-1, > 100 µM (inactive); with OVCAR-5 it was > 100 µM (inactive). Further, the GI50 in the assay on HT-29 is > 100 µM (inactive); in the assay on NCI-H226, > 100 µM (inactive); in the assay with SW-620, > 100 µM (inactive); in the assay on SNB-75 it was 5.13 µM (inactive); with HOP-92 it was > 100 µM (inactive); in the assay with DU-145, > 100 µM (inactive). Moreover, the GI50 with SF-295 was > 100 µM (inactive); with RPMI-8226 it was 34.8 µM (inactive); with SF-268 it was > 100 µM (inactive); in the assay on SK-OV-3, > 100 µM (inactive); in the assay with SK-MEL-5 it was > 100 µM (inactive); in the assay on MDA-MB-435 it was > 100 µM (inactive). Besides, in the assay on Malme-3M, the GI50 was 39.7 µM (inactive).
In the case of `CCN1C2=NCCN2S(=O)(=O)c2ccccc21`, the GI50 in the assay on NCI-H460 is > 100 µM (inactive); in the assay with M14, > 100 µM (inactive); with HCT-15 it was above 100 µM; with EKVX it was > 100 µM (inactive); in the assay on CAKI-1, > 100 µM (inactive); with OVCAR-5, > 100 µM (inactive). The GI50 in the assay on HT-29, in the assay with NCI-H226, with SW-620, in the assay on HOP-92, with DU-145 and in the assay with RXF 393 was > 100 µM (inactive) in each case. The GI50 with SF-295, with SF-268, with SK-OV-3, with SK-MEL-5 and with MDA-MB-435 was > 100 µM (inactive) throughout.
Consider `CSc1nc(SC)c2c(C)cn(Cc3ccccc3)c2n1`, for which the GI50 in the assay on NCI-H460 is 80.2 µM (inactive); with M14 it was > 100 µM (inactive); with HCT-15, 70.1 µM; in the assay with EKVX it was > 100 µM (inactive); with CAKI-1, > 100 µM (inactive); with OVCAR-5, > 100 µM (inactive). Moreover, the GI50 with HT-29 was 41.7 µM (inactive); with NCI-H226 it was > 100 µM (inactive); with SW-620 it was > 100 µM (inactive); with SNB-75, 79.6 µM (inactive); with HOP-92 it was 20.6 µM (inactive); in the assay on DU-145 it was > 100 µM (inactive). Further, the GI50 is > 100 µM (inactive) with SF-295; 85.9 µM (inactive) in the assay on RPMI-8226; > 100 µM (inactive) in the assay on SF-268; > 100 µM (inactive) with SK-OV-3; > 100 µM (inactive) with SK-MEL-5; 33.2 µM (inactive) in the assay on MDA-MB-435. In addition, the GI50 with Malme-3M is > 100 µM (inactive).
